{"source": "patent US20030109581A1", "about": "“Chemical attractants for yellowjacket wasps” (priority 2001, published 2003)", "key": {"[1]": {"test_system": "Vespula maculifrons", "test": "Field trap captures, BARC-W, 9 days in September/October", "assay_type": "in vivo", "method": "(§1) Field tests were carried out using lures prepared as described in Example 1. Traps baited with various prepared lures, in addition to unbaited control traps, were hung from trees or fences at three locations: Beltsville Agricultural Research Center-West (BARC-W), Beltsville, Md.; University of Maryland Apiary; and a private residence, Silver Spring, Md., with apple trees on the property. Most tests were conducted late in the season when populations of yellowjackets were greatest. After exposure in the field for varying periods of time, traps were brought to the laboratory for sorting and counting insects by species.\nThe equivalence of T vs. L was tested along with the effect of B and the possible synergism of HB. Six chemical treatments in replicates of three were tested over a period of 9 days in September/October at BARC-W: IB/AA; HB+A/T/B; IB/AA+A/T;\nThe test also corroborates earlier results indicating localized distribution of yellowjacket species since no V. squamosa were captured and only one individual of V. germanica was caught. The synergistic effect between IB/AA and the novel blends was also confirmed.\nPolyvinyl chloride (PVC) plugs containing an about 16% load of volatiles were prepared. For purposes of example, lures containing (E)-2-hexenal diethyl acetal, A (Bedoukian, Inc., Danbury, Conn.) and linalool, L (Aldrich Chemicals, Milwaukee, Wis.) are described. […]"}, "[2]": {"test_system": "Vespula maculifrons (eastern yellowjacket)", "test": "Field trap captures, BARC-W, 7 days in September (FIG. 1)", "assay_type": "in vivo", "method": "as §1\nIn initial experiments, the equivalence of H vs. A was tested along with the synergism between IB/AA and H/T/B or A/T/B blends. […] The use of acetal (A) is considered more desirable than hexenal (H) for this type of lure because of its lower volatility and greater stability.\nPolyvinyl chloride (PVC) plugs containing an about 16% load of volatiles were prepared. For purposes of example, lures containing (E)-2-hexenal diethyl acetal, A (Bedoukian, Inc., Danbury, Conn.) and linalool, L (Aldrich Chemicals, Milwaukee, Wis.) are described.\nPVC resin (200 g) was mixed thoroughly with 60 ml dioctyl phthalate, a blend of 30 ml of A with 20 ml of L was poured into the plasticized PVC and mixed. […]"}}}
{"smiles": "C=CC(C)(O)CCC=C(C)C", "note": "(stereo not drawn) [L, linalool]", "values": [{"measurement": "equivalence of T vs. L", "setting": "[1]", "result": "effectively substitutes for T"}]}
{"smiles": "CCC/C=C/C(OCC)OCC", "note": "[A, (E)-2-hexenal diethyl acetal]", "values": [{"measurement": "equivalence of H vs. A", "setting": "[2]", "result": "can effectively replace H in this system"}]}
{"smiles": "OCc1ccccc1", "note": "[B, benzyl alcohol]", "values": [{"measurement": "effect of B on lure activity", "setting": "[1]", "result": "is not essential for lure activity"}]}
